Laboratory results as given in patent US20160016944A1, “FUNGICIDAL 3--HETEROCYCLE DERIVATIVES” (priority 2013, published 2016).
Read-outs that look alike come from different tables or passages of the source. Marks after values point to notes of the source that are not given here.

Legend:
Phytophthora infestans = assay type: in vivo; conditions: tomato plants, preventive spray, 500 ppm active ingredient, evaluated 5 days after inoculation
[1] = logP by HPLC on reversed phase columns (EEC directive 79/831 Annex V.A8); conditions: for chromatographic logP: pH 2.7; for LogP: method [a]: HPLC/LC-MS at pH 2.7, 0.1% formic acid in water / acetonitrile gradient, Table 1
Description: (§2) Calibration was done with not branched alkan2-ones (with 3 to 16 carbon atoms) with known log P-values (measurement of log P values using retention times with linear interpolation between successive alkanones). lambda-maX-values were determined using UV-spectra from 200 nm to 400 nm and the peak values of the chromatographic signals.

Pyrenophora teres = assay: In vivo preventive test on Pyrenophora teres (net blotch on barley); conditions: barley plants, preventive spray, 500 ppm active ingredient, evaluated 14 days after inoculation
Description: (§1) The tested active ingredients are prepared by homogenization in a mixture of acetone/Dimethyl sulfoxide/Tween®, and then diluted with water to obtain the desired active material concentration.
The young plants of barley are treated by spraying the active ingredient prepared as described above. Control plants are treated only with an aqueous solution of acetone/Dimethyl sulfoxide/Tween®.
After 24 hours, the plants are contaminated by spraying the leaves with an aqueous suspension of Pyrenophora teres spores. The contaminated barley plants are incubated for 48 hours at 20° C. and at 100% relative humidity and then for 12 days at 20° C. and at 70-80% relative humidity.
The test is evaluated 14 days after the inoculation. 0% means an efficacy which corresponds to that of the control plants while an efficacy of 100% means that no disease is observed.

[2] = pH 2.7
Description: as §2

Botrytis cinerea = assay: In vivo preventive test on Botrytis cinerea (grey mould); conditions: gherkin plants, preventive spray, 500 ppm active ingredient, evaluated 4 to 5 days after inoculation
Description: as §1
The young plants of gherkin are treated by spraying the active ingredient prepared as described above. Control plants are treated only with an aqueous solution of acetone/Dimethyl sulfoxide/Tween®.
After 24 hours, the plants are contaminated by spraying the leaves with an aqueous suspension of Botrytis cinerea spores. The contaminated gherkin plants are incubated for 4 to 5 days at 17° C. and at 90% relative humidity.
The test is evaluated 4 to 5 days after the inoculation. 0% means an efficacy which corresponds to that of the control plants while an efficacy of 100% means that no disease is observed.

Plasmopara viticola = assay: Plasmopara test (grapevines) / preventive; assay type: in vivo; conditions: grapevine young plants, preventive spray, 10 ppm active ingredient, evaluated 6 days after inoculation
Description: To produce a suitable preparation of active compound, 1 part by weight of active compound is mixed with the stated amounts of solvent and emulsifier, and the concentrate is diluted with water to the desired concentration.
To test for preventive activity, young plants are sprayed with the preparation of active compound at the stated rate of application. After the spray coating has dried on, the plants are inoculated with an aqueous spore suspension of Plasmopara viticola and then remain for 1 day in an incubation cabinet at approximately 20° C. and a relative atmospheric humidity of 100%. The plant is subsequently placed for 4 days in a greenhouse at approximately 21° C. and a relative atmospheric humidity of approximately 90%. The plants are then misted and placed for 1 day in an incubation cabinet.
The test is evaluated 6 days after the inoculation. 0% means an efficacy which corresponds to that of the untreated control, while an efficacy of 100% means that no disease is observed.

Cn1c(/C(=N\OCc2cccc(NC(=O)OC(C)(C)C)n2)c2ccccc2)noc1=S [Example 1, tert-butyl {6-[({[(Z)-(4-methyl-5-thioxo-4,5-dihydro-1,2,4-oxadiazol-3-yl)(phenyl)methylene]amino}oxy)methyl]pyridin-2-yl}carbamate]
% efficacy (Phytophthora infestans): 97%
chromatographic logP [1]: 4.66

C#CCCOC(=O)Nc1cccc(CO/N=C(/c2ccccc2)c2noc(=S)n2C)n1 [Example 2, but-3-yn-1-yl {6-[({[(Z)-(4-methyl-5-thioxo-4,5-dihydro-1,2,4-oxadiazol-3-yl)(phenyl)methylene]amino}oxy)methyl]pyridin-2-yl}carbamate]
% efficacy (Phytophthora infestans): 93%
chromatographic logP [1]: 3.87

C#CCC(C)(C)OC(=O)Nc1cccc(CON=C(c2ccccc2)c2noc(=S)n2C)n1 [Example 3]
% efficacy (Phytophthora infestans): 93%
LogP [1]: 4.54^[a]

Cn1c(C(=NOCc2cccc(NC(=O)OCc3ccccc3)n2)c2ccccc2)noc1=S [Example 4]
LogP [1]: 4.58^[a]

CCCCCOC(=O)Nc1cccc(CON=C(c2ccccc2)c2noc(=S)n2C)n1 [Example 5]
% efficacy (Phytophthora infestans): 80%
LogP [1]: 5.05^[a]

CCCCC(=O)Nc1cccc(CON=C(c2ccccc2)c2noc(=S)n2C)n1 [Example 6]
% efficacy (Phytophthora infestans): 99%
% efficacy (Pyrenophora teres): 96%
LogP [2]: 4.18^[a]

Cn1c(/C(=N\OCc2cccc(N)n2)c2ccccc2)noc1=S [Example 7, 3-[(Z)-{[(6-aminopyridin-2-yl)methoxy]imino}(phenyl)methyl]-4-methyl-1,2,4-oxadiazole-5(4H)-thione]
% efficacy (Phytophthora infestans): 99%
chromatographic logP [1]: 1.59

Cn1oc(=S)nc1C(=NOCc1csc(NC(=O)OCCc2ccccc2)n1)c1ccccc1 [Example 8]
% efficacy (Phytophthora infestans): 79%
LogP [1]: 3.76^[a]

C#CCCOC(=O)Nc1nc(CON=C(c2ccccc2)c2nc(=S)on2C)cs1 [Example 9]
% efficacy (Phytophthora infestans): 89%
LogP [1]: 2.96^[a]

Cn1oc(=S)nc1C(=NOCc1csc(NC(=O)COc2ccccc2)n1)c1ccccc1 [Example 10]
% efficacy (Botrytis cinerea): 74%
% efficacy (Phytophthora infestans): 84%
LogP [2]: 3.31^[a]

Cn1oc(=S)nc1C(=NOCc1csc(NC(=O)C2COc3ccccc3O2)n1)c1ccccc1 (centres unmarked) [Example 11]
% efficacy (Phytophthora infestans): 76%
% efficacy (Plasmopara viticola): 82%
LogP [2]: 3.50^[a]

Cn1oc(=S)nc1C(=NOCc1csc(NC(=O)OC2CC3CCC2C3)n1)c1ccccc1 (centres unmarked) [Example 12]
LogP [1]: 4.06^[a]

CCCCCCCC(=O)Nc1nc(CON=C(c2ccccc2)c2nc(=S)on2C)cs1 [Example 13]
% efficacy (Phytophthora infestans): 98%
LogP [1]: 4.39^[a]

Cn1oc(=S)nc1C(=NOCc1csc(NC(=O)C2(C)CC2)n1)c1ccccc1 [Example 15]
% efficacy (Botrytis cinerea): 95%
% efficacy (Phytophthora infestans): 99%
LogP [2]: 3.11^[a]

CCCCCC(=O)Nc1nc(CON=C(c2ccccc2)c2nc(=S)on2C)cs1 [Example 16]
% efficacy (Botrytis cinerea): 95%
% efficacy (Phytophthora infestans): 76%
LogP [2]: 3.63^[a]

C#CCCCCOC(=O)Nc1nc(CON=C(c2ccccc2)c2nc(=S)on2C)cs1 [Example 17]
% efficacy (Phytophthora infestans): 100%
LogP [1]: 3.44^[a]

CCC(C)SC(=O)Nc1nc(CON=C(c2ccccc2)c2nc(=S)on2C)cs1 (centres unmarked) [Example 18]
% efficacy (Phytophthora infestans): 83%
LogP [1]: 3.90^[a]

C#CCCOC(=O)Nc1cccc(CON=C(c2ccccc2)c2nc(=NC#N)on2C)n1 [Example 19]
LogP [1]: 3.13^[a]

Cn1oc(=S)nc1/C(=N\OCc1csc(N)n1)c1ccccc1 [Example 20, 3-[(Z)-{[(2-amino-1,3-thiazol-4-yl)methoxy]imino}(phenyl)methyl]-2-methyl-1,2,4-oxadiazole-5(2H)-thione]
chromatographic logP [1]: 1.53

Cn1oc(=S)nc1C(=NOCc1csc(NC(=O)C(C)(C)C)n1)c1ccccc1 [Example 21]
LogP [1]: 3.31^[a]

C#CCC(C)OC(=O)Nc1nc(CON=C(c2ccccc2)c2nc(=S)on2C)cs1 (centres unmarked) [Example 22]
% efficacy (Phytophthora infestans): 74%
LogP [1]: 3.23^[a]

Cn1oc(=S)nc1C(=NOCc1csc(NC(=O)c2ccccc2)n1)c1ccccc1 [Example 23]
% efficacy (Botrytis cinerea): 99%
% efficacy (Phytophthora infestans): 71%
LogP [1]: 3.31^[a]

CCCCCCC(=O)Nc1nc(CON=C(c2ccccc2)c2nc(=S)on2C)cs1 [Example 24]
% efficacy (Botrytis cinerea): 84%
% efficacy (Phytophthora infestans): 79%
LogP [2]: 3.99^[a]

C#CCCC(C)OC(=O)Nc1nc(CON=C(c2ccccc2)c2nc(=S)on2C)cs1 (centres unmarked) [Example 25]
LogP [1]: 3.41^[a]

C#CCCOC(=O)Nc1cccc(CON=C(c2ccccc2)c2nc(=S)on2C)n1 [Example 26]
LogP [1]: 3.15^[a]

Cn1oc(=S)nc1C(=NOCc1csc(NC(=O)OCCOc2ccccc2)n1)c1ccccc1 [Example 27]
% efficacy (Phytophthora infestans): 90%
LogP [1]: 4.18^[a]

CN1C(C(=NOCc2cccc(NC(=O)OC(C)(C)C)n2)c2ccccc2)=NOS1=O (centres unmarked) [Example 28]
LogP [1]: 4.18^[a]

C#CCCCOC(=O)Nc1nc(CON=C(c2ccccc2)c2nc(=S)on2C)cs1 [Example 29]
% efficacy (Botrytis cinerea): 71%
LogP [2]: 3.19^[a]

Cn1oc(=S)nc1/C(=N\OCc1csc(NC(=O)OC(C)(C)C)n1)c1ccccc1 [Example 30, tert-butyl {4-[({[(Z)-(2-methyl-5-thioxo-2,5-dihydro-1,2,4-oxadiazol-3-yl)(phenyl)methylene]amino}oxy)methyl]-1,3-thiazol-2-yl}carbamate]
% efficacy (Phytophthora infestans): 100%
% efficacy (Pyrenophora teres): 86%
% efficacy (Plasmopara viticola): 79%
chromatographic logP [1]: 3.53

CC(COc1ccccc1)OC(=O)Nc1nc(CON=C(c2ccccc2)c2nc(=S)on2C)cs1 (centres unmarked) [Example 31]
LogP [1]: 4.44^[a]

CCCCC(CC)COC(=O)Nc1nc(CON=C(c2ccccc2)c2nc(=S)on2C)cs1 (centres unmarked) [Example 32]
LogP [1]: 5.55^[a]

CNC(=N\O)/C(=N\OCc1cccc(NC(=O)OC(C)(C)C)n1)c1ccccc1 [VIII-1, tert-butyl {6-[({[(1Z,2Z)-2-(hydroxyimino)-2-(methylamino)-1-phenylethylidene]amino}oxy)methyl]pyridin-2-yl}carbamate]
chromatographic logP [1]: 2.6
